Source: ChEMBL document CHEMBL1201862, “PubChem BioAssay data set” (2004)
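A five-concentration, 48-hour dose response in 96-well plates underlies each endpoint, interpolated linearly between surrounding concentrations. GI50 marks 50% less growth.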 The source made the active and inactive calls. Cut-off read from the data, not from the text of the source: active = GI50 up to about 1.1 µM and inactive = higher.

Columns and labels:
Assay in all cases: DTP human tumour cell line panel, 48 h
[1] = test system: 786-0
[2] = test system: SNB-19
[3] = test system: NCI-H23
[4] = test system: SK-MEL-28
[5] = test system: DMS-114
[6] = test system: HOP-92
[7] = test system: HCT-116
[8] = test system: EKVX
[9] = test system: OVCAR-5
[10] = test system: K562
[11] = test system: U-251
[12] = test system: SF-295
[13] = test system: SK-MEL-5
[14] = test system: SN12C
[15] = test system: SF-268

| Structure (SMILES) | GI50 [1] | GI50 [2] | GI50 [3] | GI50 [4] | GI50 [5] | GI50 [6] | GI50 [7] | GI50 [8] | GI50 [9] | GI50 [10] | GI50 [11] | GI50 [12] | GI50 [13] | GI50 [14] | GI50 [15] |
| --- | --- | --- | --- | --- | --- | --- | --- | --- | --- | --- | --- | --- | --- | --- | --- |
| COc1cc2c(cc1O)CN1CCC23C=C[C@@H](O)CC13 (some centres not stated) | 76.4 µM (inactive) | 55.6 µM (inactive) | 78.7 µM (inactive) | 76.4 µM (inactive) | 54.5 µM (inactive) | > 100 µM (inactive) | 34.1 µM (inactive) | 65.8 µM (inactive) | > 100 µM (inactive) | 51.3 µM (inactive) | 46.7 µM (inactive) | 96.2 µM (inactive) | 39.6 µM (inactive) | 46.2 µM (inactive) | 59.6 µM (inactive) |
| C/C(CC(=O)Nc1ccc(Cl)c(Cl)c1)=N/NC(=O)C[N+](C)(C)C | 56.5 µM (inactive) | > 100 µM (inactive) | > 100 µM (inactive) | 0.194 µM (active) | 21.5 µM (inactive) | > 100 µM (inactive) | > 100 µM (inactive) | > 100 µM (inactive) | > 100 µM (inactive) | 46.1 µM (inactive) |  | > 100 µM (inactive) | > 100 µM (inactive) | > 100 µM (inactive) | > 100 µM (inactive) |
| CC1=C(C(=O)CC(=O)C(=O)NC2C3CC4CC(C3)CC2C4)Sc2ccccc2N1 (configuration not stated) | > 100 µM (inactive) | > 100 µM (inactive) | > 100 µM (inactive) | > 100 µM (inactive) | > 31.6 µM (inactive) | 20.1 µM (inactive) |  | > 100 µM (inactive) | > 100 µM (inactive) | 84.3 µM (inactive) | > 100 µM (inactive) | > 100 µM (inactive) | > 83.6 µM (inactive) | > 100 µM (inactive) | > 94.8 µM (inactive) |
| COC(=O)C(CCCN1C(=O)c2ccccc2C1=O)C(=O)OC | > 100 µM (inactive) | > 100 µM (inactive) | > 100 µM (inactive) | > 100 µM (inactive) | > 100 µM (inactive) | > 100 µM (inactive) | > 100 µM (inactive) | > 100 µM (inactive) | > 100 µM (inactive) | > 100 µM (inactive) | > 100 µM (inactive) | > 100 µM (inactive) | > 100 µM (inactive) | > 100 µM (inactive) | > 100 µM (inactive) |
| O=C1C(c2ccc([N+](=O)[O-])cc2)=[N+]([O-])c2ccccc21 | > 100 µM (inactive) | < 0.01 µM (active) | 23.3 µM (inactive) | 29.3 µM (inactive) | 10.7 µM (inactive) | 31 µM (inactive) | 25.8 µM (inactive) | 32.8 µM (inactive) | 22.8 µM (inactive) | 26.5 µM (inactive) | 16.5 µM (inactive) | 42.1 µM (inactive) | 16.3 µM (inactive) | 24.5 µM (inactive) | 40.8 µM (inactive) |
| Cc1ccc(S(=O)(=O)OCC23CCC(CC2)C2CC23)cc1 (configuration not stated) | 61.2 µM (inactive) | 96.6 µM (inactive) | 38.3 µM (inactive) | 96.6 µM (inactive) | 30.5 µM (inactive) | 25.8 µM (inactive) | 53.8 µM (inactive) |  | > 100 µM (inactive) | 39.6 µM (inactive) | 50.9 µM (inactive) | 35.1 µM (inactive) | 24 µM (inactive) | 45.4 µM (inactive) | 37.5 µM (inactive) |
| O=[N+]([O-])c1ccc2nc(/C(=N/Nc3ccccc3)C(O)c3ccc(Cl)cc3Cl)c(O)nc2c1 (configuration not stated) | > 100 µM (inactive) |  | > 100 µM (inactive) |  | 8.65 µM (inactive) | > 100 µM (inactive) | > 100 µM (inactive) | > 100 µM (inactive) | > 100 µM (inactive) | 30 µM (inactive) | > 100 µM (inactive) | > 100 µM (inactive) | 21.8 µM (inactive) | > 100 µM (inactive) | > 100 µM (inactive) |
| COc1ccc(OC2(c3cc(OC)ccc3OC)OC(=O)c3ccccc32)cc1 (configuration not stated) | > 100 µM (inactive) | > 100 µM (inactive) | > 100 µM (inactive) | > 100 µM (inactive) | > 100 µM (inactive) | > 100 µM (inactive) | > 100 µM (inactive) | > 100 µM (inactive) | > 100 µM (inactive) | > 100 µM (inactive) | > 100 µM (inactive) | > 100 µM (inactive) | > 100 µM (inactive) | > 100 µM (inactive) | > 100 µM (inactive) |
| COC(=O)C1C=CCON2CCc3c(n(C)c4ccccc34)C12 (configuration not stated) | > 100 µM (inactive) | > 100 µM (inactive) | > 100 µM (inactive) | > 100 µM (inactive) | > 100 µM (inactive) | > 100 µM (inactive) | > 100 µM (inactive) | 92.3 µM (inactive) | > 100 µM (inactive) | > 100 µM (inactive) | > 100 µM (inactive) | > 100 µM (inactive) | > 100 µM (inactive) | > 100 µM (inactive) | > 100 µM (inactive) |
| Cn1c(=O)nc2n(-c3ccc(Cl)cc3)c(-c3ccccc3)c(-c3ccccc3)nc-2c1=O | 29.8 µM (inactive) | 32.1 µM (inactive) | 66.2 µM (inactive) | 25.5 µM (inactive) | 28.1 µM (inactive) | 16.5 µM (inactive) |  | 47 µM (inactive) | 66.8 µM (inactive) | 25.6 µM (inactive) | 27.5 µM (inactive) | 30.1 µM (inactive) | 20.1 µM (inactive) | 33.6 µM (inactive) | 23.6 µM (inactive) |
| COc1cc(C2c3cc4c(cc3[C@@H](OCCN)[C@H]3COC(=O)C23)OCO4)cc(OC)c1O (some centres not stated) | 0.082 µM (active) | 0.104 µM (active) | 0.136 µM (active) | 0.518 µM (active) | 0.0295 µM (active) | 0.082 µM (active) | 0.995 µM (active) | 0.413 µM (active) | 0.644 µM (active) | 0.181 µM (active) | 0.0405 µM (active) | 0.108 µM (active) | 0.2 µM (active) | 0.107 µM (active) | 0.159 µM (active) |
| Cc1ccccc1NC(=O)c1cc2cc(/N=N/c3ccccc3C(=O)O)ccc2oc1=O | 27.1 µM (inactive) | > 10 µM (inactive) | 3.11 µM (inactive) | 13.5 µM (inactive) | 14.6 µM (inactive) |  | 20.7 µM (inactive) | 48.6 µM (inactive) |  | 23.6 µM (inactive) | 21.4 µM (inactive) | 18.5 µM (inactive) | 14.5 µM (inactive) | 18.6 µM (inactive) |  |
| Cc1noc2cccc(OCc3ccccc3)c12 | 99.3 µM (inactive) | 91 µM (inactive) | > 100 µM (inactive) | > 100 µM (inactive) | 29 µM (inactive) | 43.3 µM (inactive) | 48.1 µM (inactive) | 35.7 µM (inactive) | 25.6 µM (inactive) | 43 µM (inactive) | 93.8 µM (inactive) | 72.4 µM (inactive) | 17.1 µM (inactive) | > 100 µM (inactive) | > 100 µM (inactive) |
| CN(C)CCC(/C=C/c1ccccc1)=N\Nc1ccc(Cl)cc1 | 2.39 µM (inactive) | 11 µM (inactive) | 7.24 µM (inactive) | 12.8 µM (inactive) | 2.4 µM (inactive) | 2.18 µM (inactive) | 3.51 µM (inactive) | 2.49 µM (inactive) | 1.08 µM (active) | 2.21 µM (inactive) | 1.84 µM (inactive) | 3.99 µM (inactive) | 14.7 µM (inactive) | 2.29 µM (inactive) | 2.07 µM (inactive) |
| CCOC(OC1=C(C#N)CCCC1)C(C)[Se]c1ccccc1 (configuration not stated) | 15.5 µM (inactive) | 54.5 µM (inactive) | 16 µM (inactive) | 26 µM (inactive) | 4.29 µM (inactive) | 31.6 µM (inactive) | 30.1 µM (inactive) | 28.7 µM (inactive) | > 100 µM (inactive) | 62.1 µM (inactive) | 13.4 µM (inactive) | 33.3 µM (inactive) | 20.6 µM (inactive) | 25.2 µM (inactive) | 18.5 µM (inactive) |
| COC(=O)[C@H]1[C@H]2C[C@@H]3c4[nH]c5cc(OC)ccc5c4CCN3C[C@H]2C[C@@H](OC(=O)c2cc(OC)c(OC)c(OC)c2)[C@@H]1OC [RESERPINE] | 14.2 µM (inactive) | 16.2 µM (inactive) | 18.1 µM (inactive) | > 10 µM (inactive) | 15.6 µM (inactive) | 10.8 µM (inactive) | 13.7 µM (inactive) |  | 38 µM (inactive) | 7.11 µM (inactive) | 15 µM (inactive) | 17.7 µM (inactive) | 15.7 µM (inactive) |  | 28.1 µM (inactive) |
| CCCCCCCCCCCCCC(=O)OC1C(CO)OC(=O)C1O (configuration not stated) | > 100 µM (inactive) | 71.4 µM (inactive) | > 100 µM (inactive) |  | > 100 µM (inactive) | 26.7 µM (inactive) | > 100 µM (inactive) | > 100 µM (inactive) | > 100 µM (inactive) | 34.7 µM (inactive) | 82.8 µM (inactive) | 58.3 µM (inactive) | > 100 µM (inactive) | > 100 µM (inactive) | > 100 µM (inactive) |
| COc1cc([C@H]2c3cc4c(cc3[C@H](NCc3ccc([N+](=O)[O-])cc3)C3COC(=O)[C@H]32)OCO4)cc(OC)c1O (some centres not stated) | 0.877 µM (active) | 1.01 µM (active) | 0.398 µM (active) | 5.45 µM (inactive) | 2.62 µM (inactive) | 2.81 µM (inactive) | 2.36 µM (inactive) | 3.18 µM (inactive) | 2.89 µM (inactive) | 3.18 µM (inactive) | 0.655 µM (active) | 0.681 µM (active) | 2.29 µM (inactive) | 0.807 µM (active) | 1.47 µM (inactive) |
| CCCCOC(=O)NC(=O)c1cn(C2CCCCC2)c(=O)[nH]c1=O | 18.6 µM (inactive) | 26.5 µM (inactive) | 33 µM (inactive) | 39.8 µM (inactive) | 39.8 µM (inactive) | 14.3 µM (inactive) | 21.5 µM (inactive) | > 100 µM (inactive) | > 100 µM (inactive) | > 100 µM (inactive) | 28.4 µM (inactive) | 54.3 µM (inactive) |  | > 100 µM (inactive) | 30.8 µM (inactive) |
